The record followed here is patent EP2878292A2, “Application of cosmetic compositions for the inactivation and/or elimination of skin mites” (Henkel AG & Co. KGaA, priority 2013, dated 2015).

For the series, the system named is Haustaubmilben. Type of series: in vivo. The method, then: Die zu testende Substanz wurde mit Wasser auf die vorgesehene Einsatzkonzentration verdünnt (s.u.). Haustaubmilben, die aufgrund ihrer großen Ähnlichkeit als Vergleich zu Haarbalgmilben (Demodex) verwendet werden, wurden aus ihrem Futter isoliert und auf 1,5 cm x 1,5 cm große Filterpapierstücke übertragen. Etwa 100 Milben je Ansatz wurden mit 50 µl der zu testenden Substanzen in den vorhergesehenen Verdünnungen betropft. Die überschüssige Flüssigkeit wurde nach 10 Sekunden abgesaugt. Die noch feuchten Filterpapiere mit den Milben wurden nach der Behandlung in eine Petrischale gebracht, die mit einem Deckel und einer Umrandung mit Paraffin verschlossen wurden, um sicherzustellen, dass evtl. überlebende Milben nicht entweichen können. Die Milben können nach Beginn einer Behandlung - gleichgültig mit welchem Mittel - unbeweglich werden, sich jedoch später wieder erholen und ihre Beweglichkeit zumindest für kurze Zeit wiedererlangen. Andererseits ist es auch möglich, dass Milben in den ersten Stunden nach einer Behandlung noch vital erscheinen, jedoch bereits so stark geschädigt sind, dass sie innerhalb eines Tages bis zu 2-3 Tagen sterben. Daher wurden die Petrischalen für einen Tag aufbewahrt, und die Milben dann erst auf ihre Vitalität bewertet.
Die Anzahl der toten und lebenden Milben wurde bestimmt und in % der Sterberate umgerechnet.
Die Versuche wurden zweifach durchgeführt. […]

Consider `CCCCCCCCC(O)CO` (centres unmarked) [Symclariol, 1,2-Decanediol], for which, under “conclusion in words drawn from the test at 2%”, the “Inaktivierung bzw. Eliminierung von Milben” value is “wirksam”. For the setting “house dust mite, in vivo, topical, 24 h”, the “Sterberate (Mittelwert)” value is reported as 10,9%.
